≈ marks a conversion by molar mass, not a printed value.
How the values were obtained:
Trypanosoma cruzi [1] = assay: Assay 2 Trypanosoma cruzi intracellular assay (infected Vero cells); format: cell-based; settings: 72 h, read-out: pEC50 value against Trypanosoma cruzi (converted)
Protocol: Compounds were dispensed into black 384-well assay plates (Corning) by acoustic dispensing (LabCyte ECHO). For potency determinations, ten-point one in three dilution curves were generated, with a top concentration of 50 μM. Vero cells were infected overnight with T. cruzi trypomastigotes in T225 tissue culture flasks at a multiplicity of infection of 5. Next, any remaining free trypomastigotes were washed away with serum free MEM media and the infected Vero cells were harvested by trypsinisation. The infected Vero cells were then plated into 384-well plates containing the compounds to be tested, at 4000 cells per well in MEM media with 1% FCS. After 72 h incubation at 37° C. in presence of 5% CO2, the plates were fixed with 4% formaldehyde for 20 minutes at room temperature and stained with 5 μg/ml Hoechst 33342. The plates were imaged on a Perkin Elmer Operetta high-content imaging system using a 20× objective. Images were analysed using the Columbus system (Perkin Elmer). The image analysis algorithm first identified the Vero nuclei followed by demarcation of the cytoplasm and identification of intracellular amastigotes. This algorithm reported mean number of parasites per Vero cell and total number of Vero cells.

[2] = Assay 4 solubility assay, ChemiLuminescent Nitrogen Detection (CLND); format: physicochemical; settings: phosphate buffered saline, pH 7.4, aqueous buffer, kinetic from dmso stock, pH 7.4 PBS, from 10 mM DMSO stock, 1 h at room temperature
Protocol: A 10 mM DMSO stock solution of the compound was prepared. Solvents and Buffers Organic solvents of HPLC grade were used. Ultra pure water (Milli-Q grade) was used. Buffers were prepared with ultra pure water and filtered using 0.45μ cameo filters. Aqueous Buffer Solution: Phosphate Buffer Saline (PBS) @ pH 7.4 was prepared from Sigma dry powder packs, P-3813. Each one was diluted to 1 liter with deionised water. The pH was checked before the solution was used II. Procedures. • a) DMSO concentration was measured. DMSO blanks and ondansetron and caffeine standards were added to the plate (column 12, A, B, C, & D for the blanks and E, F, G, & H for the standards). Plates were covered with foil. When the UV and CLND detectors baselines appeared to be stable, the CLND was zeroed. • b) Once DMSO concentration measurements were complete, a filtration plate was prepared from each parent plate by diluting 5 μl of the 10 mM DMSO stock solution to […] with pH7.4 PBS. • c) After the plates were prepared, they were covered with a plate lid and left to incubate for 1 h at room temperature. • d) Sample was filtered using MILLIPORE MultiScreen Solubility (MSSLBPC10) Filtration Plates, to NUNC V well plates. The filter plate was removed and the NUNC plate was sealed with a power seal plate seal. • e) HPLC/CLND instruments were set up and left to equilibrate. Mobile phases (MeOH:H2O 1:1, flow rate: 0.2 ml/min, sensitivity z10, Gain High). The samples were run. • f) The assay curve fit was done by linear regression and solubility values were reported in μM.

Trypanosoma cruzi [3] = assay: Assay 6 Trypanosoma cruzi intracellular assay (infected H9C2 cells); format: cell-based; settings: H9c2, in Rattus norvegicus, 72 h, infected H9C2 rat cardiomyocytes, read-out: pEC50 value against Trypanosoma cruzi (converted)
Protocol: Compounds were dispensed into black 384-well assay plates (Greiner) by acoustic dispensing (LabCyte ECHO). For potency determinations, eleven-point, one in three dilution curves were generated, with a top concentration of 50 μM. H9C2 rat cardiomyocytes cells were dispensed in T225 tissue culture flasks and after 4 hours they were infected during 18 hours with T. cruzi trypomastigotes in the same T225 tissue culture flasks at a multiplicity of infection of 1. Next, any remaining free trypomastigotes were washed away with PBS and the infected H9C2 cells were harvested by trypsinisation. The infected H9C2 cells were then plated into 384-well plates containing the compounds to be tested, at 2500 cells per well in DMEM media with 2% FBS, 1% Penicillin/Streptomocin, 2 mM L-Glutamine, 1 mM Na Pyruvate and 25 mM HEPES. After 72 h incubation at 37° C. in presence of 5% CO2, the plates were fixed and stained with 4% formaldehyde and 2 μM Draq5 for 3 hours at room temperature. The plates were imaged on a Perkin Elmer Opera high-content imaging system using a 20× air objective. Images were analysed using the Acapella building blocks system (Perkin Elmer). The image analysis algorithm first identified the H9C2 nuclei followed by demarcation of the cytoplasm and identification of intracellular amastigotes. This algorithm reported mean number of parasites per H9C2 cell, the percentage of infected H9C2 cells and the total number of H9C2 cells.

[4] = Assay 1 intramacrophage Leishmania donovani assay, THP-1 cell count (cytotoxicity readout); format: cell-based; settings: human, minimum threshold 4.3, read-out: cytotoxicity against THP-1 cells, pEC50 value (converted)
Protocol: (§1) The intramacrophage Leishmania assay was performed using a modified version of the method described in De Rycker et al. (Antimicrob Agents Chemother. 2013 July; 57(7):2913-22. Comparison of a high-throughput high-content intracellular Leishmania donovani assay with an axenic amastigote assay. De Rycker M, Hallyburton I, Thomas J, Campbell L, Wyllie S, Joshi D, Cameron S, Gilbert I H, Wyatt P G, Frearson J A, Fairlamb A H, Gray D W.). Procedure: 350 nl of compound was pre-dispensed into 384 well sterile intermediary plates. For single point screening, amphotericin B was added to all wells of column 24 as a positive control (final concentration 2 μM) and DMSO to column 23. For potency determinations, ten-point, one in three dilution curves were created with the highest concentration being 50 μM and on each plate a control curve of amphotericin B was included. Controls were as follows: columns 11 and 12: DMSO, columns 23 and 24: amphotericin B (final concentration 2 μM). To the intermediary plates, 35 μl of THP-1 media was added and plates were shaken for >5 min to ensure complete mixing. THP-1 cells (8,000 per well, 50 μl) were plated into black clear-bottom 384 well plates (Corning) in presence of 20 nM PMA. After 20 min at RT, the plates were incubated at 37° C. under 5% CO2 in a humidified incubator for 75 h. The cells were then washed with […] sterile phosphate buffered saline (PBS) supplemented with 1 mM CaCl2, 0.5 mM MgCl2, 0.1% (w/v) bovine serum albumin (PBS-A) and amastigotes were added to all wells at a multiplicity of infection of 5 (40,000 amastigotes per well). After 40 min at RT, plates were returned to the incubator. Amastigotes were incubated in the presence of THP-1 macrophages for 16 h. Any remaining extracellular amastigotes were subsequently removed with an overflow wash of 1 mL PBS-A per well (wash buffer is being aspirated from the top of the well as it is being dispensed) followed by addition of 25 μl of the compound pre-dilutions using a Fluidx Ipette-pro pipetting station. The final dilution of each compound was 200-fold. Plates were incubated for 96 h and then washed (250 μl PBS-A) and fixed (4% (v/v) formaldehyde-PBS, 30 min, RT). After fixation, the wells were washed with 250 μl PBS, stained (10 μg/mL DAPI, 0.4 μg mL-1 HCS Cellmask Deep Red in PBS+0.1% (v/v) Triton X-100, 30 min, RT) and washed with 250 μl PBS. Finally, PBS+0.05% (v/v) thimerosal was added to the wells, the plates were sealed and imaged on a high-content microscope (GE IN Cell 2000) using a 10× objective. Image analysis was carried out with GE IN Cell Analyzer 1000 Workstation using the “Multi Target Analysis” module. Settings for segmentation were as follows: nuclei: minimum area: 142.384 μm2, sensitivity: 81, method: top-hat; cells: characteristic area: 2500 μm2, sensitivity: 60, method: multiscale top-hat; organelles (amastigotes): granule size 1-3, 3 scales, sensitivity: 90, detection in entire cell. For each well, i) THP-1 cell count (cytotoxicity readout) and ii) average number of amastigotes per cell (potency readout) were calculated, both in terms of pEC50 values.

[5] = Assay 5 Leishmania donovani intracellular assay, cytotoxicity against THP-1 cells; format: cell-based; settings: human, total number of THP-1 cells, minimum threshold 4.3, read-out: cytotoxicity against THP-1 cells, pEC50 value (converted)
Protocol: Compounds were dispensed into black 384-well assay plates (Greiner) by acoustic dispensing (LabCyte ECHO). For potency determinations, eleven-point, one in three dilution curves were generated, with a top concentration of 50 μM. THP-1 human monocytes cells were dispensed in T225 tissue culture flasks and differentiated using 30 nM of PMA, after 24 hours they were infected overnight using Leishmania donovani expressing Green Fluorescent Protein (eGFP) amastigotes in the same T225 tissue culture flasks at a multiplicity of infection of 10. Next, any remaining free amastigotes were washed away with PBS and the infected THP-1 cells were harvested by trypsinisation. The infected cells were then plated into 384-well plates containing the compounds to be tested, at 3000 cells per well in RPMI media with 2% FBS and 25 mM Sodium bicarbonate. After 96 h incubation at 37° C. in presence of 5% CO2, the plates were fixed with 4% formaldehyde for 30 minutes, washed with PBS and stained with 0.1 mg/mL of DAPI for 30 minutes and washed again with PBS. The plates were imaged on a Perkin Elmer Opera high-content imaging system using a 20× air objective with two expositions, one for DAPI stain and other for eGFP. Images were analysed using the Acapella building blocks system (Perkin Elmer). The image analysis algorithm first identified the THP-1 nuclei followed by demarcation of the cytoplasm and identification of intracellular amastigotes. This algorithm reported mean number of parasites per THP-1 cell, the percentage of infected THP-1 cells and the total number of THP-1 cells.

Leishmania donovani = assay: Assay 1 intramacrophage Leishmania donovani assay (potency readout); format: cell-based; settings: amastigotes in PMA-treated THP-1 macrophages, 96 h, average number of amastigotes per cell, minimum threshold 4.3, read-out: pEC50 value against Leishmania donovani (converted)
Protocol: as §1

EC50 (Trypanosoma cruzi [1]) | solubility at 1 h [2] | EC50 (Leishmania donovani) | Compound | EC50 (Trypanosoma cruzi [3]) | EC50 at 96 h [4] | EC50 at 96 h [5]
– | 1 to 6 µM (≈ 0.502 to 3.01 µg/mL) | – | O=C(Nc1ccc(F)c(-c2cn3nc(-c4cccc(CN5CCOCC5)c4)cnc3n2)c1)N1CCCC1 [Example 19, N-(4-fluoro-3-(2-(3-(morpholinomethyl)phenyl)imidazo[1,2-b] [1,2,4]triazin-6-yl)phenyl)pyrrolidine-1-carboxamide] | 5.01 to 631 nM | 3980 to 15800 nM | –
– | 100 to 416 µM (≈ 46 to 191 µg/mL) | – | CN(C)Cc1cccc(-c2cnc3nc(-c4cc(NC(=O)N5CCCC5)ccc4F)cn3n2)c1 [Example 41, N-(3-(2-(3-((dimethyl-amino)methyl)phenyl)imidazo[1,2-b][1,2,4]triazin-6-yl)-4-fluorophenyl)pyrrolidine-1-carboxamide] | 5.01 to 631 nM | – | 2510 to 10000 nM
20 to 251 nM | 10 to 83 µM (≈ 4.02 to 33.4 µg/mL) | – | O=C(Nc1ccc(F)c(-c2cn3nc(-c4ccccc4)cnc3n2)c1)N1CCCC1 [Example 2, N-(4-fluoro-3-(2-phenylimidazo[1,2-b][1,2,4]triazin-6-yl)phenyl)pyrrolidine-1-carboxamide] | 5.01 to 631 nM | – | –
– | 1 to 6 µM (≈ 0.502 to 3.01 µg/mL) | – | O=C(Nc1ccc(F)c(-c2cn3nc(-c4ccc(CN5CCOCC5)cc4)cnc3n2)c1)N1CCCC1 [Example 18, N-(4-fluoro-3-(2-(4-(morpholinomethyl)phenyl)imidazo[1,2-b] [1,2,4]triazin-6-yl)phenyl)pyrrolidine-1-carboxamide] | 5.01 to 631 nM | 3980 to 15800 nM | –

Further lines, the compound ahead of its results:

Compound | EC50 (Trypanosoma cruzi [1]) | solubility at 1 h [2] | EC50 (Leishmania donovani) | EC50 (Trypanosoma cruzi [3]) | EC50 at 96 h [4] | EC50 at 96 h [5]
CC1CN(c2cnc3nc(-c4cc(NC(=O)N5CCCC5)ccc4F)cn3n2)CCO1 (racemic) [Example 5, (+,−)-N-(4-fluoro-3-(2-(2-methylmorpholino)imidazo[1,2-b][1,2,4]triazin-6-yl)phenyl)pyrrolidine-1-carboxamide] | 20 to 251 nM | 10 to 83 µM (≈ 4.25 to 35.3 µg/mL) | – | 5.01 to 631 nM | – | –
O=C(Nc1ccc(F)c(-c2cn3nc(N4CCCCC4)cnc3n2)c1)N1CCCC1 [Example 4, N-(4-fluoro-3-(2-(piperidin-1-yl)imidazo[1,2-b][1,2,4]triazin-6-yl)phenyl)pyrrolidine-1-carboxamide] | 20 to 251 nM | 10 to 83 µM (≈ 4.09 to 34 µg/mL) | – | 5.01 to 631 nM | – | –
C[C@@H]1CN(c2cnc3nc(-c4cc(NC(=O)N5CCCC5)ccc4F)cn3n2)C[C@H](C)O1 (single isomer, unassigned) [Example 6] | 20 to 251 nM | 10 to 83 µM (≈ 4.39 to 36.5 µg/mL) | – | 5.01 to 631 nM | – | –
Cc1nn(C)cc1S(=O)(=O)Nc1ccc(F)c(-c2cn3nc(N4CCOCC4)cnc3n2)c1 [Example 34, N-(4-fluoro-3-(2-morpholinoimidazo [1,2-b][1,2,4]triazin-6-yl)phenyl)-1,3-dimethyl-1H-pyrazole-4-sulfonamide] | 25100 nM | – | > 50100 nM | 10000 to 39800 nM | – | –
O=C(Nc1ccc(F)c(-c2cn3nc(N4CCCC4)cnc3n2)c1)N1CCCC1 [Example 3, N-(4-fluoro-3-(2-(pyrrolidin-1-yl)imidazo[1,2-b][1,2,4]triazin-6-yl)phenyl)pyrrolidine-1-carboxamide] | 20 to 251 nM | 10 to 83 µM (≈ 3.95 to 32.8 µg/mL) | – | 5.01 to 631 nM | – | –
COc1ccc(CNc2cnc3nc(-c4cc(NC(=O)N5CCCC5)ccc4F)cn3n2)cc1 [Example 50, N-(4-fluoro-3-(2-((4-methoxybenzyl)amino)imidazo[1,2-b][1,2,4]triazin-6-yl)phenyl) pyrrolidine-1-carboxamide] | – | – | – | 5.01 to 631 nM | 3980 to 15800 nM | –
O=C(Nc1ccc(F)c(-c2cn3nccnc3n2)c1)N1CCCC1 [Example 8, N-(4-fluoro-3-(imidazo[1,2-b][1,2,4]triazin-6-yl)phenyl)pyrrolidine-1-carboxamide] | 20 to 251 nM | – | – | – | – | –

Reference: patent US10065965B2, “Imidazo[1,2-B][1,2,4]triazine derivatives as antiparasitic agents” (GlaxoSmithKline Intellectual Property Development Limited, priority 2015, dated 2018)
